# Columns and labels:
# IL-6 = IL-6 release from LPS-primed, nigericin-treated THP1 macrophages, Hu IL-6 AlphaLISA; type: cell-based; conditions: Homo sapiens, THP-1; PMA-differentiated THP1, LPS 20 ng/ml 3 hrs, compound 1 hr, Nigericin 6.7 uM 3 hrs, supernatant
# NLRP3 inflammasome = NLRP3 inflammasome (Homo sapiens, UniProt Q96P20); test: NLRP3 inflammasome activation in THP1 macrophages (LPS priming, nigericin), IL-1β AlphaLISA; type: cell-based; conditions: PMA-differentiated THP1, LPS 20 ng/ml 3 hrs, compound 1 hr, Nigericin 6.7 uM 3 hrs, supernatant
# Sequence of NLRP3 inflammasome (Q96P20 whole entry): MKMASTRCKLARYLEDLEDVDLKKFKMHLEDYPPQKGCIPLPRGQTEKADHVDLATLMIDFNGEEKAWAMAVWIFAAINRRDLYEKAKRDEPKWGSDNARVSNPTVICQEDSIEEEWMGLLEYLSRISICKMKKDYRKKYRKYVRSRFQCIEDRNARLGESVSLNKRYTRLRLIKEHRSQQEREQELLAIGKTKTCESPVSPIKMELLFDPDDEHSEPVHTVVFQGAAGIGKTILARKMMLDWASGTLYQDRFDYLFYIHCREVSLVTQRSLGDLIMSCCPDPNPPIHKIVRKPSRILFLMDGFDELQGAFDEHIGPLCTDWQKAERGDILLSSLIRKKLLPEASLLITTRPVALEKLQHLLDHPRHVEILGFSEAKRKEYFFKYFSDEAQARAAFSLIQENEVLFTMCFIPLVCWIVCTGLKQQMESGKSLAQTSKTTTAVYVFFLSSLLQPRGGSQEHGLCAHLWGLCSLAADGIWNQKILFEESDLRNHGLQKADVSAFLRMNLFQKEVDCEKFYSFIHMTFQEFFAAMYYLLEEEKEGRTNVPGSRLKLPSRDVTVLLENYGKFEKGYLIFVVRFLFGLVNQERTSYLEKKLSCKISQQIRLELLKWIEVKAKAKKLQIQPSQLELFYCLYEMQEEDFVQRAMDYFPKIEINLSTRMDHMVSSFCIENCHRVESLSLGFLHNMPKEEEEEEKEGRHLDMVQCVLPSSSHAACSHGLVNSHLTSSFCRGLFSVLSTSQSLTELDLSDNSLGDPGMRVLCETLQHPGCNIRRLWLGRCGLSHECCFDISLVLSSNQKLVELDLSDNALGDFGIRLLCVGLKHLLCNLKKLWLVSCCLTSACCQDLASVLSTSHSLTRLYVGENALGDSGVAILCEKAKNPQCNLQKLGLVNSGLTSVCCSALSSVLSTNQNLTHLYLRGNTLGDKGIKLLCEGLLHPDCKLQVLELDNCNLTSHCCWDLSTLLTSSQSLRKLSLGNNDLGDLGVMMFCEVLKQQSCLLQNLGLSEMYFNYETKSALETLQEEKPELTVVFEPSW
IC50 (IL-6),IC50 (NLRP3 inflammasome),Structure (SMILES)
> 10000 nM,≤ 10 nM,CCN1CCC[C@@H](Nc2cc(C)c(-c3ccc(C(F)(F)F)cc3)nn2)C1 [compound 1]
5000 to 10000 nM,10 to 50 nM,"Cc1cc(N[C@@H]2CCCN(C)C2)nnc1-c1ccc(C(F)(F)F)cc1 [compound 3, (R)-5-methyl-N-(1-methylpiperidin-3-yl)-6-(4-(trifluoromethyl)phenyl)-pyridazin-3-amine]"
5000 to 10000 nM,10 to 50 nM,CN1CCC[C@@H](Nc2ccc(-c3ccc(Cl)cc3C(F)(F)F)nn2)C1 [compound 4]
> 10000 nM,10 to 50 nM,Cc1cc(N[C@@H]2CCCN(C)C2)nnc1-c1ccc(C(F)(F)F)cc1F [compound 6]
> 10000 nM,10 to 50 nM,Cc1cc(N[C@@H]2CCCN(C)C2)nnc1-c1ccc(OC(F)(F)F)cc1 [compound 7]
> 10000 nM,10 to 50 nM,COc1cc(C(F)(F)F)ccc1-c1nnc(N[C@@H]2CCCN(C)C2)cc1C [compound 8]
1000 to 5000 nM,10 to 50 nM,Cc1cc(C(F)(F)F)ccc1-c1nnc(N[C@@H]2CCCN(C)C2)cc1C [compound 9]
5000 to 10000 nM,10 to 50 nM,CCc1cc(N[C@@H]2CCCN(C)C2)nnc1-c1ccc(C(F)(F)F)cc1 [compound 10]
1000 to 5000 nM,10 to 50 nM,Cc1ccc(-c2nnc(N[C@@H]3CCCN(C)C3)cc2C)cc1 [compound 11]
> 10000 nM,10 to 50 nM,CCc1ccc(-c2nnc(N[C@@H]3CCCN(C)C3)cc2C)cc1 [compound 12]
5000 to 10000 nM,50 to 100 nM,Cc1ccc(-c2nnc(N[C@@H]3CCCN(C)C3)cc2C(F)(F)F)cc1 [compound 13]
> 10000 nM,10 to 50 nM,Cc1c(N[C@@H]2CCCN(C)C2)nnc(-c2ccc(C(F)(F)F)cc2)c1C [compound 14]
> 10000 nM,10 to 50 nM,"Cc1cc(N[C@@H]2CCCN(CCO)C2)nnc1-c1ccc(C(F)(F)F)cc1 [compound 15, 2-[(3R)-3-[[5-methyl-6-[4-(trifluoromethyl)phenyl]pyridazin-3-yl]amino]-1-piperidyl]ethanol]"
> 10000 nM,10 to 50 nM,Cc1cc(N[C@@H]2CCCN(C)C2)nnc1-c1ccc(F)cc1 [compound 16]
> 10000 nM,50 to 100 nM,Cc1cc(N[C@@H]2C[C@@H](F)CN(C)C2)nnc1-c1ccc(C(F)(F)F)cc1 [compound 17]
5000 to 10000 nM,50 to 100 nM,CN1CCC[C@@H](Nc2ccc(-c3ccc(Cl)cc3Cl)nn2)C1 [compound 18]
5000 to 10000 nM,100 to 500 nM,Cc1cc(C(F)(F)F)ccc1-c1ccc(N[C@@H]2CCCN(C)C2)nn1 [compound 19]
> 10000 nM,100 to 500 nM,CN1CCC[C@@H](Nc2ccc(-c3ccc(C(F)(F)F)cc3Cl)nn2)C1 [compound 20]
5000 to 10000 nM,100 to 500 nM,Cc1ccc(-c2ccc(N[C@@H]3CCCN(C)C3)nn2)c(C)c1 [compound 21]
> 10000 nM,50 to 100 nM,Cc1cc(N[C@@H]2CCCNC2)nnc1-c1ccc(C(F)(F)F)cc1 [compound 22]
> 10000 nM,100 to 500 nM,CC(C)c1cc(N[C@@H]2CCCN(C)C2)nnc1-c1ccc(C(F)(F)F)cc1 [compound 23]
> 10000 nM,100 to 500 nM,CCN1CCC[C@@H](Nc2nnc(-c3ccc(C(F)(F)F)cc3)cc2C)C1 [compound 24]
> 10000 nM,50 to 100 nM,Cc1cc(N[C@@H]2CCCN(CCF)C2)nnc1-c1ccc(C(F)(F)F)cc1 [compound 25]
> 10000 nM,100 to 500 nM,Cc1cc(N[C@@H]2CCCN(C)C2)nnc1-c1ccc(C(F)(F)F)c(F)c1 [compound 26]
> 10000 nM,100 to 500 nM,Cc1cc(N[C@@H]2CCCN(C)C2)nnc1-c1ccc(F)cc1F [compound 27]
5000 to 10000 nM,100 to 500 nM,Cc1cc(N[C@@H]2CCCN(C)C2)nnc1-c1ccc(C2CCC2)cc1 [compound 28]

IC50 (IL-6),IC50 (NLRP3 inflammasome),Structure (SMILES)
> 10000 nM,100 to 500 nM,Cc1cc(-c2ccc(C(F)(F)F)cc2F)nnc1N[C@@H]1CCCN(C)C1 [compound 29]
> 10000 nM,100 to 500 nM,CCc1cc(-c2ccc(C(F)(F)F)cc2)nnc1N[C@@H]1CCCN(C)C1 [compound 30]
> 10000 nM,100 to 500 nM,Cc1cc(N[C@@H]2CCCN(C)C2)nnc1-c1ccc(C#N)cc1 [compound 31]
> 10000 nM,100 to 500 nM,COc1ccc(-c2nnc(N[C@@H]3CCCN(C)C3)cc2C)cc1 [compound 32]
> 10000 nM,100 to 500 nM,Cc1cc(N[C@@H]2CCCN(C)C2)nnc1-c1cc(C)c(F)c(C)c1 [compound 33]
> 10000 nM,100 to 500 nM,Cc1cc(N[C@@H]2CCCN(C)C2)nnc1-c1ccc(F)c(Cl)c1 [compound 34]
> 10000 nM,500 to 1000 nM,COc1cc(C(F)(F)F)ccc1-c1cc(C)c(N[C@@H]2CCCN(C)C2)nn1 [compound 35]
> 10000 nM,500 to 1000 nM,Cc1cc(-c2ccc(C(F)(F)F)cc2)nnc1N[C@@H]1CCCN(C)C1 [compound 36]
> 10000 nM,500 to 1000 nM,Cc1cc(N[C@@H]2CCCN(C)C2)nnc1-c1cccc(C(C)C)c1 [compound 37]
> 10000 nM,500 to 1000 nM,Cc1cc(-c2ccc(C(F)(F)F)c(F)c2)nnc1N[C@@H]1CCCN(C)C1 [compound 38]
> 10000 nM,500 to 1000 nM,Cc1cc(N[C@@H]2CCCN(C)C2)nnc1-c1ccc(C(F)(F)F)c(Cl)c1 [compound 39]
5000 to 10000 nM,50 to 100 nM,Cc1cc(N[C@@H]2CCCN(C)C2)nnc1-c1ccc(C(F)(F)F)cc1C#N [compound 40]
> 10000 nM,100 to 500 nM,CN1CCC[C@@H](Nc2nnc(-c3ccc(C(F)(F)F)cc3)cc2Cl)C1 [compound 41]
5000 to 10000 nM,500 to 1000 nM,Cc1cc(C(F)(F)F)cc(C)c1-c1ccc(N[C@@H]2CCCN(C)C2)nn1 [compound 42]
5000 to 10000 nM,> 1000 nM,Cc1cc(N[C@@H]2CCCN(C)C2)nnc1-c1cccc(Cl)c1 [compound 43]
> 10000 nM,100 to 500 nM,Cc1cccc(-c2nnc(N[C@@H]3CCCN(C)C3)cc2C)c1 [compound 44]
> 10000 nM,> 1000 nM,Cc1cc(N[C@@H]2CCCN(C)C2)nnc1-c1cccc(F)c1 [compound 45]
> 10000 nM,> 1000 nM,Cc1cc(N[C@@H]2CCCN(C)C2)nnc1-c1cccc(C(F)(F)F)c1 [compound 46]
> 10000 nM,> 1000 nM,Cc1cc(-c2cccc(C(F)(F)F)c2)nnc1N[C@@H]1CCCN(C)C1 [compound 47]
> 10000 nM,> 1000 nM,Cc1cc(N[C@@H]2CCCN(C)C2)nnc1-c1cccc(C#N)c1 [compound 50]
> 10000 nM,> 1000 nM,Cc1cc(-c2cccc(C#N)c2)nnc1N[C@@H]1CCCN(C)C1 [compound 51]
> 10000 nM,> 1000 nM,COc1cccc(-c2nnc(N[C@@H]3CCCN(C)C3)cc2C)c1 [compound 52]
> 10000 nM,> 1000 nM,COc1cccc(-c2cc(C)c(N[C@@H]3CCCN(C)C3)nn2)c1 [compound 53]
> 10000 nM,> 1000 nM,Cc1cc(N[C@@H]2CCCN(C)C2)nnc1-c1ccccc1 [compound 54]
> 10000 nM,> 1000 nM,CCc1cccc(-c2nnc(N[C@@H]3CCCN(C)C3)cc2C)c1 [compound 55]

# From patent US20250074888A1, “PYRIDAZINE DERIVATIVES AS MODULATORS OF NLRP3 INFLAMMASOME AND RELATED METHODS” (Neumora Therapeutics, Inc., priority 2021, published 2025)
